Data as given in ChEMBL document CHEMBL5154648, “Antitumor activity of novel POLA1-HDAC11 dual inhibitors” (Eur J Med Chem, 2022).
Calls of active or inactive are those of the source. No cut-off for these calls is given here.

Experiments:
[1] = molecular target: T1, DNA polymerase alpha catalytic subunit (Homo sapiens) (UniProt P09884); test: Inhibition of recombinant POLA1 (unknown origin) using 5-Fluorescein-rGrGrArArArGrGrArCrGrArArArCrA-3 as substrate at 10 to 50 uM and measured by primer extension assay; conditions: dose 10-50 µM
T1 sequence (whole entry): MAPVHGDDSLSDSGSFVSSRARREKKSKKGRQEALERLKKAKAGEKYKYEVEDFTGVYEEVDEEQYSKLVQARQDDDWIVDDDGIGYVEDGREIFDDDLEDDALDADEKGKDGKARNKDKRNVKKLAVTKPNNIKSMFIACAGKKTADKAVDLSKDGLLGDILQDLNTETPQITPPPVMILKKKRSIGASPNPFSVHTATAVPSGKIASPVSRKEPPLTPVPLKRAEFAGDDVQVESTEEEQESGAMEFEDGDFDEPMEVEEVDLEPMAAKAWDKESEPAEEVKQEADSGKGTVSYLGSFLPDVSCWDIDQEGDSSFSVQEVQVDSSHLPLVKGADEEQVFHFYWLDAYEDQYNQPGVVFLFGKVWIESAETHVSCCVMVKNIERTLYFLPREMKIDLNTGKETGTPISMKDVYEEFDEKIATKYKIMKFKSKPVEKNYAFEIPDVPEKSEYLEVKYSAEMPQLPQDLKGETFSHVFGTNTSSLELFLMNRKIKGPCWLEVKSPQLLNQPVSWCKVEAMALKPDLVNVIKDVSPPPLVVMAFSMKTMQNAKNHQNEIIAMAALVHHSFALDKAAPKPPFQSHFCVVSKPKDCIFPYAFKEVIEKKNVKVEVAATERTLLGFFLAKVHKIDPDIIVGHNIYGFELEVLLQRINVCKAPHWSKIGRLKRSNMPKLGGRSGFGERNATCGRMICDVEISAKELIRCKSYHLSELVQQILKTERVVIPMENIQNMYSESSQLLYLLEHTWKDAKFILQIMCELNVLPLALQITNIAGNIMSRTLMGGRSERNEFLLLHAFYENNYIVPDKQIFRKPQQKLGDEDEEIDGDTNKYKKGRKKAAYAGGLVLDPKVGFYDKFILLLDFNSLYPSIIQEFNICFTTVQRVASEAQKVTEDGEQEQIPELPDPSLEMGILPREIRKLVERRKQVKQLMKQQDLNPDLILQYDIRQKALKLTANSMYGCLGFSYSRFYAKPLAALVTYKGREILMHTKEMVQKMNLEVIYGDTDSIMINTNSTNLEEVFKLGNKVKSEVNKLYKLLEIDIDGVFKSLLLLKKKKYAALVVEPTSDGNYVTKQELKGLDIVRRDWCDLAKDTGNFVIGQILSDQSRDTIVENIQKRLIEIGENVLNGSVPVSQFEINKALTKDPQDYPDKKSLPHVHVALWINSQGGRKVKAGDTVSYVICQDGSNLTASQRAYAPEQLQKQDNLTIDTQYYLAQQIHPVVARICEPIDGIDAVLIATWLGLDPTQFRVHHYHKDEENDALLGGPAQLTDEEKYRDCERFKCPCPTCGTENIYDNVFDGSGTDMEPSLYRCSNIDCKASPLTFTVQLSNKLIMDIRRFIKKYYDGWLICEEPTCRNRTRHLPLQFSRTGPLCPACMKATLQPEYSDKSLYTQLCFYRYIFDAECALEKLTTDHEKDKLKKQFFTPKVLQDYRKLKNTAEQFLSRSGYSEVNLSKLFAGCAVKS

MM473 = test: Induction of cell cycle arrest in human MM473-Luc cells assessed as accumulation of cells at S phase at 1.2 uM after 72 hrs by flow cytometry (reference value: 13.7%); type: functional
[2] = molecular target: T2, Histone deacetylase 11 (Homo sapiens) (UniProt Q96DB2); test: Inhibition of HDAC11 in human NCI-H460 cells at 0.1 to 0.4 uM assessed as induction of p53 acetylation and measured by Western blot analysis; type: cell-based; conditions: dose 0.1-0.4 µM
T2 sequence (whole entry): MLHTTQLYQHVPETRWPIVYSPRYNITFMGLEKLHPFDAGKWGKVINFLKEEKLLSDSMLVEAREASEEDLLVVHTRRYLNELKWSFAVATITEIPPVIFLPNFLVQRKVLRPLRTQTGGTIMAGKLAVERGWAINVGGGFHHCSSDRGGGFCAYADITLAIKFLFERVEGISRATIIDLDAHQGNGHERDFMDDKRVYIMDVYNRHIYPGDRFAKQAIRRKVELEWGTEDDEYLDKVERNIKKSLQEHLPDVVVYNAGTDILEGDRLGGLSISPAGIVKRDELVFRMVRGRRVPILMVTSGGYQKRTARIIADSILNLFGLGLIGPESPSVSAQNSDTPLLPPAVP

NCI-H460 [3] = test: Antiproliferative activity against human NCI-H460 cells at 0.1 to 0.4 uM assessed as reduction in p-ERK1/2 level and measured by Western blot analysis; type: functional, cell-based; conditions: dose 0.1-0.4 µM
NCI-H460 [4] = test: Induction of DNA damage in human NCI-H460 cells at 0.1 to 0.4 uM assessed as increase in p-H2AX levels and measured by Western blot analysis; type: functional, cell-based; conditions: dose 0.1-0.4 µM
NCI-H460 [5] = test: Antiproliferative activity against human NCI-H460 cells at 0.1 to 0.4 uM assessed as reduction in PIN1 level and measured by Western blot analysis; type: functional, cell-based; conditions: dose 0.1-0.4 µM
[6] = molecular target: T2, Histone deacetylase 11 (Homo sapiens); test: Inhibition of HDAC11 in human MM473 cells at 0.1 to 0.4 uM assessed as increase in p21 level and measured by Western blot analysis; type: cell-based; conditions: dose 0.1-0.4 µM
MDA-MB-231 = test: Antiproliferative activity against human MDA-MB-231 cells incubated for 24 hrs followed by incubating in drug-free medium for 48 hrs and measured by SRB assay; type: functional, cell-based
NCI-H460 [7] = test: Induction of cell cycle arrest in human NCI-H460 cells assessed as accumulation of cells at sub-G1 phase at 0.25 uM after 72 hrs by flow cytometry (reference value: 1.1%); type: functional
NCI-H460 [8] = test: Induction of cell cycle arrest in human NCI-H460 cells assessed as accumulation of cells at G2/M phase at 0.25 uM after 72 hrs by flow cytometry (reference value: 21.1%); type: functional
NCI-H460 [9] = test: Down-regulation of POLA1 mRNA expression in human NCI-H460 cells at 0.25 uM measured by qRT-PCR assay; type: functional, cell-based
[10] = Toxicity in mouse xenografted with human H460-R9A cells assessed as body weight loss at 20 mg/kg, po qd administered 5 times a week for 3 to 4 weeks; type: organism-based; conditions: in vivo, time 3-4 weeks
A2780 [11] = test: Induction of cell cycle arrest in human A2780 cells assessed as accumulation of cells at S phase at 0.95 uM after 72 hrs by flow cytometry (reference value: 36.3%); type: functional
A2780 [12] = test: Induction of DNA damage in human A2780 cells at 0.1 to 0.4 uM assessed as increase in p-H2AX levels and measured by Western blot analysis; type: functional, cell-based; conditions: dose 0.1-0.4 µM
A2780 [13] = test: Induction of cell cycle arrest in human A2780 cells assessed as accumulation of cells at G2/M phase at 0.95 uM after 72 hrs by flow cytometry (reference value: 15%); type: functional
NCI-H460 [14] = test: Down-regulation of POLA1 protein expression in human NCI-H460 cells at 0.26 uM measured by Western blot analysis; type: functional, cell-based

Row | Compound | inhibition [1] | Activity (MM473) | inhibition [2] | Activity (NCI-H460 [3]) | Activity (NCI-H460 [4]) | Activity (NCI-H460 [5]) | inhibition [6] | IC50 (MDA-MB-231) | Activity (NCI-H460 [7]) | Activity (NCI-H460 [8]) | Activity (NCI-H460 [9]) | Activity [10] | Activity (A2780 [11]) | Activity (A2780 [12]) | Activity (A2780 [13]) | Activity (NCI-H460 [14])
1 | O=C(O)C=Cc1ccc(-c2ccc(OCC(=O)NO)c(C34CC5CC(CC(C5)C3)C4)c2)cc1 | Active | 62.9% | Active | Active | Active | Active | Active | 1900 nM | 12.1% | 2.8% | Active | – | – | – | – | –
2 | O=C(O)C=Cc1ccc(-c2ccc(O)c(C34CC5CC(CC(C5)C3)C4)c2)cc1 | – | – | – | – | – | – | – | 1100 nM | – | – | – | 0% | – | – | – | –
3 | CC(Oc1ccc(-c2ccc(C=CC(=O)O)cc2)cc1C12CC3CC(CC(C3)C1)C2)C(=O)NO (configuration not stated) | Active | – | Active | Active | Active | Active | – | – | – | – | – | – | 86.2% | Active | 3% | Active
